Measurements reported in US11851710B2, “Methods and materials for identifying metastatic malignant skin lesions and treating skin cancer” (Mayo Foundation for Medical Education and Research, priority 2014, dated 2023).
Several values for one entry are separate records, joined by “and”; a condition that tells them apart may be missing. Equal values may be shown once. Read-outs that look alike come from different tables or passages of the source.

What was measured:
SPP1 promoter = SPP1 promoter dual luciferase (DUAL-GLO) screen of LOPAC library in WM858 cells; assay type: cell-based; settings: WM858 cells with luciferase-tagged SPP1 promoter
Excerpt: FIG. 14 depict the luciferase construct for high-throughput screening. Genomic structure of the SPP1 gene is shown as well as a targeting approach. A DNA double-strand break was induced in exon (E) 2 of SPP1, 3′ of the ATG start codon by a custom-made zinc finger nuclease (ZFN), arrow. A targeting vector with 500 bp homology arms (HA, middle), Hygromycin resistance (HYGRO), a target promoter-driven firefly luciferase (LUC2P), and a CMV-pomoter driven renilla luciferase (HRLUC) was offered for repair at the time of the double-strand break. PA, PA terminator signal. Blue boxes, untranslated region; black boxes, translated region.
Osteopontin (SPP1) is a proto-typical cancer-associated extracellular matrix gene and ligand of αv and α5β1 integrins. SPP1 is highly overexpressed in melanoma (Talantov et al., Clin. Cancer Res. 11:7234-42 (2005)) and its upregulation correlates with metastasis risk (Conway et al., Clin. Cancer Res. 15:6939-6946 (2009) and Mitra et al., Br. J. Cancer 103:1229-1236 (2010)). To rapidly screen chemical compounds for their ability to inhibit SPP1 expression in vitro, the endogenous SPP1 promoter of WM858 melanoma cells was tagged with a dual luciferase system using zinc finger nucleases. The SPP1-promoter drives firefly luciferase tagged with a protein degradation sequence (hPEST). A CMV-promoter driven renilla luciferase was used as a loading control (FIG. 14). […]

in vitro [1] = assay type: cell-based; settings: human
Method: (§1) Pentamidine inhibited SPP1 mRNA in both WM858 (FIG. 15C) and M12 cells (FIG. 15D). […] Next, a red-fluorescent nuclear protein was stably expressed in M12 cells to automatically count nuclei over time (using the IncuCyte ZOOM system, Essen Bioscience), a surrogate measure of cell proliferation. Pentamidine reduced M12 proliferation with an ED50 of 40 μM.

in vitro [2] = assay type: cell-based; settings: human; remark: listed apart in the source
Method: as §1

SPP1 mRNA [3] = experiment: SPP1 mRNA by quantitative PCR in WM858 cells; assay type: cell-based
Excerpt: (§2) FIGS. 15A-15J illustrate that pentamidine inhibits SPP1 expression, proliferation, and invasion of melanoma cells. […] FIGS. 15B-15D illustrate that pentamidine inhibits SPP1 promoter activity in the DUAL-GLO® assay (FIG. 15B), but also by quantitative PCR in normal WM858 (FIG. 15C) and M12 cells (FIG. 15D). […] FIG. 15I is a chart illustrating that pentamidine injections reduce SPP1, ([…], and t-PA (PLAT) mRNA expression in M12 PDX. Average of three mice is shown. PENTA, Pentamidine; DABRA, Dabrafenib. WM858 and M12 are B-rafV600E metastatic melanoma cells.
as §1

SPP1 mRNA [4] = experiment: SPP1 mRNA by quantitative PCR in M12 cells; assay type: cell-based, human
Excerpt: as §2, §1

β3 integrin (ITGB3) = experiment: Expression of β3 integrin (ITGB3) in melanoma cells; assay type: cell-based; settings: FIG. 15E
Excerpt: as §2, §1

t-PA (PLAT) = experiment: Expression of t-PA (PLAT) in melanoma cells; assay type: cell-based; settings: FIG. 15E
Excerpt: as §2, §1

M12 cells [5] = experiment: M12 proliferation, automated count of red-fluorescent nuclei (IncuCyte ZOOM); assay type: cell-based; settings: Homo sapiens, nuclei counted over time, read-out: M12 proliferation ED50
Method: Automated quantification of cell proliferation was by the INCUCYTE™ kinetic imaging system (Essen Bioscience). Approximately 2,000 cells were seeded into a 96-well cell culture dish, eight replicates per condition over the indicated time. Data analysis was with the INCUCYTE ZOOM software package.
as §1

M12 cells [6] = experiment: M12 invasion into Matrigel-embedded scratch wounds; assay type: cell-based, human; settings: 2 mg/mL Matrigel, compared with Dabrafenib
Excerpt: as §2, §1

[7] = Tolerability of i.m. Pentamidine in nude mice with intradermal M12 xenografts; assay type: in vivo; settings: six consecutive days, female nude mice
Method: (§3) To determine whether Pentamidine reduces SPP1 expression in vivo, M12 cells were injected intradermally into female nude mice and left to grow until xenograft tumors formed (FIGS. 15H and 15I). Then, four different doses of Pentamidine were injected intramuscularly (i.m.) into groups of three mice for six consecutive days. It was previously shown that serum concentration in patients injected with 4 mg/kg Pentamidine i.m. daily (FDA labeling) range from 0.2-1.4 μg/mL (0.3-2.4 μM). In rats, slightly lower levels can be achieved using 10 mg/kg i.m. daily (0.1-0.4 μg/mL) (Bernard et al., J. Inf. Dis. 152:750-754 (1985) and Waalkes et al., Clin. Pharma. Therap. 11:505-512 (1969)). In the current study, at the highest Pentamidine dose (80 mg/kg/daily), all mice died. Mice survived at 40 mg/kg/day, but appeared sick. […] Tumors were subsequently harvested, lysed, and analyzed by quantitative PCR. All doses of Pentamidine led to a reduction of SPP1, β3 integrin, and t-PA (PLAT) mRNA expression in tumor tissue (FIG. 15J).

SPP1 mRNA [8] = experiment: SPP1 mRNA in M12 xenograft tumor tissue by quantitative PCR; assay type: in vivo, mice; settings: all doses i.m. for six days
Excerpt: as §2
as §3, with “(1969)).” for “(1969)). In the current study, at the highest Pentamidine dose (80 mg/kg/daily), all mice died. Mice survived at 40 mg/kg/day, but appeared sick.”, “All doses of Pentamidine led to a reduction of SPP1, β3 integrin, and t-PA (PLAT) mRNA expression in tumor tissue (FIG. 15J).” left out

β3 integrin mRNA = β3 integrin mRNA in M12 xenograft tumor tissue by quantitative PCR; assay type: in vivo, mice; settings: all doses i.m. for six days
Excerpt: as §2
as §3, with “(1969)).” for “(1969)). In the current study, at the highest Pentamidine dose (80 mg/kg/daily), all mice died. Mice survived at 40 mg/kg/day, but appeared sick.”, “All doses of Pentamidine led to a reduction of SPP1, β3 integrin, and t-PA (PLAT) mRNA expression in tumor tissue (FIG. 15J).” left out

t-PA (PLAT) mRNA = t-PA (PLAT) mRNA in M12 xenograft tumor tissue by quantitative PCR; assay type: in vivo, mice; settings: all doses i.m. for six days
Excerpt: as §2
as §3, with “(1969)).” for “(1969)). In the current study, at the highest Pentamidine dose (80 mg/kg/daily), all mice died. Mice survived at 40 mg/kg/day, but appeared sick.”, “All doses of Pentamidine led to a reduction of SPP1, β3 integrin, and t-PA (PLAT) mRNA expression in tumor tissue (FIG. 15J).” left out

[9] = patients, 4 mg/kg i.m. daily (FDA labeling); cited from earlier work
[10] = rats, 10 mg/kg i.m. daily; cited from earlier work
β3 integrin = experiment: Cell surface β3 integrin expression by flow cytometry after overnight drug incubation; assay type: cell-based; settings: B-rafV600E melanoma cells, 5 μM
Method: (§4) FIGS. 13A-13P illustrate B-raf^V600E inhibits FAK to promote integrin surface expression. FIG. 13A: shRNAs 841, 102 and NC were induced in WM858 cells by IPTG for 5 days (n=4) followed by RNA quantitation. Genes regulated at 0 vs. 0.05 mM IPTG in 841 and 102 but not NC cells are shown. These were: ITGB3 (orange), FAK (blue). Light orange, light blue: up- or down-regulation, respectively, by either 841 or 102 shRNA. FIG. 13B: WM858 cells were transfected with FAK or EGFP cDNA. Regulated genes, FAK over EGFP cells, are shown in orange (up) or blue (down) (n=4). FIG. 13C: Flow cytometry of NC, 841 and 102 cells (un-induced vs. 0.05 mM IPTG for 5 days). FIG. 13D: Integrin cell surface mean intensities; mean.+−.s.d.; n=3; *, p<0.05; p values, Student's t-test; ns, not significant. FIG. 13E: Visualization of focal adhesions by paxillin staining on micropatterned fibronectin disks. FIGS. 13F and 13G: Proliferation speed in the absence (FIG. 13F) or presence (FIG. 13G) of FAK shRNAs; mean.+−.s.d.; n=8; *, p<0.05; p values, Student's t-test; ns, not significant. FIGS. 13H and 13I: Scratch wound healing in IPTG-induced cells; representative experiment (n=3). FIGS. 13J and 13K: Effect of IPTG-induced FAK knock-down on total (t) and phospho (p)-ERK; mean.+−.s.d.; n=4; *, p<0.05; p values, Student's t-test. FIG. 13L: Cell surface β1 and β3 integrin expression (flow cytometry) in B-raf^V600E and wild-type cells after overnight drug incubation; % expression relative to DMSO is shown. FIGS. 13M-13O: FAK/ERK levels in NHM and WM858 after overnight drug incubation (FIG. 13M); quantification of FAK (FIG. 13N) and ERK phosphorylation (FIG. 13O); mean.+−.s.d.; n=4; *, p<0.05; p values, Student's t-test. FIG. 13P: ERK activity in NC, 841 and 102 cells (0.05 mM IPTG for 5 days) after overnight drug incubation.
Isopropyl β-D-1-thiogalactopyranoside (IPTG), 4′,6-Diamidino-2-phenylindole dihydrochloridemitomycin (DAPI), blebbistatin and PF-573228 were purchased from Sigma-Aldrich. Dabrafenib (GSK2118436) was purchased from Selleckchem. FAK antibody (06-543) was from EMD MILLIPORE®. FAK pY397 (44624G) antibody was from Life Technologies. Total ERK (9102) and phospho-ERK (4370) antibodies were from Cell Signaling. Paxillin (610051), ITGB3 (555754), ITGB1 (555443) and mouse IgG1 kappa (555749) antibodies were from BD Transduction Labs. Drugs were used at 5 μM final concentration. EGFP control cDNA was from (Lonza). […]
PYK2, a FAK-like tyrosine kinase, could not be detected in WM858 cells, irrespective of endogenous FAK levels. WM858 cells carrying control (NC) or FAK-specific shRNAs (841 and 102) were then exposed to IPTG for 5 days, and changes in adhesion gene expression were subsequently quantified by PCR. […]

β1 integrin = experiment: Cell surface β1 integrin expression by flow cytometry after overnight drug incubation; assay type: cell-based; settings: 5 μM
Method: as §4
Isopropyl β-D-1-thiogalactopyranoside (IPTG), 4′,6-Diamidino-2-phenylindole dihydrochloridemitomycin (DAPI), blebbistatin and PF-573228 were purchased from Sigma-Aldrich. Dabrafenib (GSK2118436) was purchased from Selleckchem. FAK antibody (06-543) was from EMD MILLIPORE®. FAK pY397 (44624G) antibody was from Life Technologies. Total ERK (9102) and phospho-ERK (4370) antibodies were from Cell Signaling. Paxillin (610051), ITGB3 (555754), ITGB1 (555443) and mouse IgG1 kappa (555749) antibodies were from BD Transduction Labs. Drugs were used at 5 μM final concentration. EGFP control cDNA was from (Lonza). FAK cDNA was obtained from A. Huttenlocher, Addgene plasmid number 35039 (Chan et al., J. Biol. Chem., 285:11418-26 (2010)).
PYK2, a FAK-like tyrosine kinase, could not be detected in WM858 cells, irrespective of endogenous FAK levels. WM858 cells carrying control (NC) or FAK-specific shRNAs (841 and 102) were then exposed to IPTG for 5 days, and changes in adhesion gene expression were subsequently quantified by PCR. […] Moreover, Dabrafenib-induced blockage of ERK activity could be partially reversed by a complete FAK knock-down in 102 cells (FIG. 13P).

Row | Structure (SMILES) | Normalized ratio: firefly signal normalized to renilla signal, then to DMSO-treated control wells (SPP1 promoter) | EC50 (in vitro [1]) [µM] | EC50 (in vitro [2]) [µM] | SPP1 mRNA (SPP1 mRNA [3]) | SPP1 mRNA (SPP1 mRNA [4]) | expression of β integrin (β3 integrin (ITGB3)) | expression of t-PA (PLAT) (t-PA (PLAT)) | EC50 (M12 cells [5]) [µM] | Matrigel invasion (M12 cells [6]) | survival / tolerability of mice ([7]; 40 mg/kg/day i.m.) | survival / tolerability of mice ([7]; 80 mg/kg/daily i.m.) | survival / tolerability of mice ([7]; other two doses, specifically 8 mg/kg/day i.m.) | SPP1 mRNA expression in tumor tissue (SPP1 mRNA [8]) | β3 integrin mRNA expression in tumor tissue (β3 integrin mRNA) | t-PA (PLAT) mRNA expression in tumor tissue (t-PA (PLAT) mRNA) | serum concentration [9] | serum concentration [10] [ng/mL] | β3 integrin surface levels (β3 integrin) | β1 integrin surface levels (β1 integrin; B-raf wild-type melanoma cells) | β1 integrin surface levels (β1 integrin; B-rafV600E melanoma cells)
1 | N=C(N)c1ccc(OCCCCCOc2ccc(C(=N)N)cc2)cc1 [Pentamidine, 4,4′-[pentane-1,5-diylbis(oxy)]dibenzenecarboximidamide] | < 0.25 | > 100 | > 100 | inhibited | inhibited | reduced | reduced | 40 | more effectively than Dabrafenib | appeared sick | all mice died | well tolerated | reduction | reduction | reduction | 0.2-1.4 μg/mL and 0.3-2.4 μM | 100 to 400 |  |  | 
2 | Cc1ccc2c(c1)C(=O)C1(O)CCN(c3ccccc3)C1=N2 (centres unmarked) [blebbistatin] |  |  |  |  |  |  |  |  |  |  |  |  |  |  |  |  |  | induced | not | induced
